Data as given in the SangsterLogP compilation.

Assay: method code SF-HPLC, from DOI: 10.1016/j.ecoenv.2011.11.024
Conditions: pH 2.0

| Compound | logD |
| --- | --- |
| Cc1ccc(S)cc1 | 3.27 |
| Sc1ccc(Cl)cc1 | 2.66 |
| Fc1ccc(S)cc1 | 2.92 |
| Sc1ccccc1Cl | 2.27 |
| Fc1cc(F)c(F)c(S)c1F | 1.76 |
| Cc1cccc(C)c1S | 4.02 |
| Sc1cccc(Cl)c1Cl | 2.44 |
| COc1ccc(S)cc1OC | 3.32 |
| Cc1ccc(C)c(S)c1 | 3.92 |
| Cc1cccc(S)c1 | 3.13 |

The remaining lines, values ahead:

| logD | Compound |
| --- | --- |
| 2.43 | Sc1cc(Cl)cc(Cl)c1 |
| 2.93 | COc1cccc(S)c1 |
| 3.52 | Cc1ccccc1S |
| 3.77 | Cc1ccc(S)c(C)c1 |
| 2.12 | Fc1cccc(S)c1 |
| 2.47 | Sc1cccc(Cl)c1 |
| 1.9 | Fc1ccccc1S |
| 2.44 | Sc1ccccc1Br |
| 2.72 | Sc1ccc(Br)cc1 |
| 3.62 | Cc1ccc(S)cc1C |
| 2.49 | Sc1ccc(Cl)cc1Cl |
| 2.48 | Sc1cccc(Br)c1 |
| 2.48 | Sc1cc(Cl)ccc1Cl |
| 2.35 | Sc1c(Cl)cccc1Cl |
